Assay results: US8815857B2 (Boehringer Ingelheim International GmbH, priority 2011, dated 2014)
Values after ≈ are worked out from the molar mass of the structure shown.

Columns and labels:
[1] = Assessment of solubility: HT solubility in pION buffer, UV spectrophotometry; conditions: 16-19 h incubation, 1.0% DMSO; for solubility: pION system solution buffer, kinetic from dmso stock
[2] = target: T1, Recombinant human soluble guanylate cyclase (sGC), alpha 1 / beta 1 subunits, heme-free (Homo sapiens, UniProt Q02108+Q02153); assay: Molecular assay: cGMP formation by heme-free recombinant sGC (CisBio cGMP detection kit); format: biochemical; conditions: 300 pM heme-free sGC, 37° C., 60 min, cGMP readout; read-out: EC50 nM, Activity of Compounds in Molecular Assay
T1 construct: histidine tag (C); made in house; host or cells: Sf9 insect cells (baculovirus coinfection)
T1 sequence (Q02108 1-690 partner): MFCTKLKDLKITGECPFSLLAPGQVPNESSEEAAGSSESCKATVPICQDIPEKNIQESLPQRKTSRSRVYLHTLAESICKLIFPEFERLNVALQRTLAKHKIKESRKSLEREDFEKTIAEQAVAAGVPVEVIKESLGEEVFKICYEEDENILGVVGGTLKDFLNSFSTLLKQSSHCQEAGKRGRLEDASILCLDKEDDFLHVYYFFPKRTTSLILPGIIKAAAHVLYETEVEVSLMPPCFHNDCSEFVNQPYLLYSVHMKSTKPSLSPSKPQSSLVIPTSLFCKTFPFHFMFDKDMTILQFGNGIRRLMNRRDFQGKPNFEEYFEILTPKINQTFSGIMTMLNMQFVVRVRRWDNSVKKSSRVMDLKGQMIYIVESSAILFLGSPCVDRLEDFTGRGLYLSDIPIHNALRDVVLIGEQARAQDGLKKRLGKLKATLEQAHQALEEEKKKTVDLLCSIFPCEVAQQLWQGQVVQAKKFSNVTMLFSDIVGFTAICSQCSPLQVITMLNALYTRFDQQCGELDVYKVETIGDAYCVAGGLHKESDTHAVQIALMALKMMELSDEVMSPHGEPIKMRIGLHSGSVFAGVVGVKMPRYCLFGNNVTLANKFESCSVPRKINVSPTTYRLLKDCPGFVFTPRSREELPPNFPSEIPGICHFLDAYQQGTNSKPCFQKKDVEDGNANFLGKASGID
T1 sequence (Q02153 1-619): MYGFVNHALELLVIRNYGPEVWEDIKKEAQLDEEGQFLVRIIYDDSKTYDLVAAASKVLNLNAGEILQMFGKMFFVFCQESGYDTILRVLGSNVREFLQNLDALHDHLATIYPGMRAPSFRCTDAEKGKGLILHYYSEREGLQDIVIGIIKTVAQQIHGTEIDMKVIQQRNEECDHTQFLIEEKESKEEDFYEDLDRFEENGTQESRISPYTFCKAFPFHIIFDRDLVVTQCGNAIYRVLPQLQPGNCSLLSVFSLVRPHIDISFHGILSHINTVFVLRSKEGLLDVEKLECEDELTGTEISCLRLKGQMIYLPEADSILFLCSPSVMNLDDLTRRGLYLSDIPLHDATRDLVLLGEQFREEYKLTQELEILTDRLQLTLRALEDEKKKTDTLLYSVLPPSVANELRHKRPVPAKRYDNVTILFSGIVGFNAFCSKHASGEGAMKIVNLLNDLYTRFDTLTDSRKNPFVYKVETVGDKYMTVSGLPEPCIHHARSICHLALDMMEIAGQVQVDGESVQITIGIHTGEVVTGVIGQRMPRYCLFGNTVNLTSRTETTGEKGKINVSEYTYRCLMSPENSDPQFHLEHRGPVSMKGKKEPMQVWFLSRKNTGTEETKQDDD
Outline: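 Heme-free His-tagged sGC (Sf9-expressed, Tween 20-treated lysate) at 300 pM incubated with compounds (1% DMSO) for 60 min at 37° C in MOPS pH 6.8 with 50 nM GTP, IBMX, TCEP. cGMP quantified by HTRF against calibration curve; EC50 from combined undiluted/diluted values.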

[3] = pH 4.5, pH 4.5, aqueous buffer, Solubility (pH 4.5), pH 4.5 buffer
[4] = pH 7.4, pH 7.4, aqueous buffer, Solubility (pH 7.4), pH 7.4 buffer

| Compound | solubility [1, 3] [µg/mL] | solubility [1, 4] [µg/mL] | EC50 [2] [nM] | Solubility (pH 4.5) ([1]; pH 4.5 buffer) [μg/mL] | Solubility (pH 7.4) ([1]; pH 7.4 buffer) [μg/mL] |
| --- | --- | --- | --- | --- | --- |
| COCCN(C)Cc1ccc(COc2ccc(C)cc2-c2csc(N3CCC(C(=O)O)CC3)n2)c(C#N)c1 [Compound 46] | > 64 | > 64 | 260 |  |  |
| Cc1ccc(OCc2ccc(C(=O)N3CCOCC3)cc2C#N)c(-c2csc(N3CCC(C(=O)O)CC3)n2)c1 [Compound 70] | 0.45 (≈ 0.823 µM) | > 54 | 180 |  |  |
| Cc1cc(CN2CCOCC2)ccc1COc1ccc(C#N)cc1-c1csc(N2CC3C(C2)C3C(=O)O)n1 (stereo not drawn) [Compound 33] | > 60 | > 60 | 7800 |  |  |
| Cc1ccc(OCc2ccc(C(=O)N3CCCCC3)cc2C)c(-c2csc(N3CCC(C(=O)O)C(C)C3)n2)c1 (stereo not drawn) [Compound 71] | 42 (≈ 76.7 µM) | > 62 | 12000 |  |  |
| Cc1cc(CN2CCOCC2)ccc1COc1ccccc1-c1csc(N2CCC(C(=O)O)C(C)C2)n1 (stereo not drawn) [Compound 2] |  |  | 320 | >71 | >71 |
| Cc1ccc(OCc2ccc(CN3CCOCC3)cc2C)c(-c2csc(NCCCC(=O)O)n2)c1 [Compound 4] | > 54 | > 54 | 760 |  |  |
| Cc1cc(C(=O)N2CCCCC2)ccc1COc1ccc(Cl)cc1-c1csc(C2=CCC(C(=O)O)CC2)n1 (stereo not drawn) [Compound 76] |  | 4.1 (≈ 7.44 µM) | 600 | 0.1 |  |
| Cc1cc(CN2CCOCC2)ccc1COc1ccc(Cl)cc1-c1csc(N2CCC(C(=O)O)CC2)n1 [Compound 63] | 30 (≈ 55.3 µM) | 32 (≈ 59 µM) | 110 |  |  |
| Cc1cc(CN2CCS(=O)(=O)CC2)ccc1COc1ccc(C#N)cc1-c1csc(N2C3CCC2CC(C(=O)O)C3)n1 (stereo not drawn) [Compound 147] | 1 (≈ 1.65 µM) | > 60 | 1200 |  |  |
| Cc1cc(C(=O)N2CCCCC2)ccc1COc1ccccc1-c1csc([C@H]2CC[C@@H](C(=O)O)CC2)n1 [Compound 11] |  | > 51 | 2300 | 0.1 |  |
| Cc1cc(CN2CCCC(O)C2)ccc1COc1c(C)cccc1-c1csc(N2CCC(C(=O)O)CC2)n1 (stereo not drawn) [Compound 53] | > 53 | > 53 | 640 |  |  |
| Cc1cc(CN2CCC(O)CC2)ccc1COc1c(C)cccc1-c1csc(N2CCC(C(=O)O)CC2)n1 [Compound 54] | 16 (≈ 29.9 µM) | 16 (≈ 29.9 µM) | 2000 |  |  |
| Cc1ccc(OCc2ccc(CN3CCOCC3)cc2C)c(-c2csc(N3CCC(F)(C(=O)O)CC3)n2)c1 [Compound 60] | > 58 | > 58 | 1200 |  |  |
| Cc1ccc(OCc2ccc(CN3CCOCC3)cc2C)c(-c2csc(N3C4CCC3CC(C(=O)O)C4)n2)c1 (stereo not drawn) [Compound 174] | > 66 | > 66 | 320 |  |  |
| Cc1cc(C(=O)N2CCCCC2)ccc1COc1ccccc1-c1csc(N2CCC(C(=O)O)CC2)n1 [Compound 17] | 0.7 (≈ 1.35 µM) | > 51 | 79 |  |  |
| Cc1ccc(OCc2ccc(CN3CCOCC3)cc2C)c(-c2csc(N3CCCC(C(=O)O)CC3)n2)c1 (stereo not drawn) [Compound 52] | > 58 | > 58 | 39 |  |  |
| Cc1cc(C(=O)N2CCCC2)ccc1COc1c(C)cccc1-c1csc(N2CCC(C(=O)O)CC2)n1 [Compound 15] | 13 (≈ 25 µM) | > 51 | 190 |  |  |
| Cc1ccc(OCc2ccc(CN3CCOCC3)cc2C#N)c(-c2csc(N3CC[C@@H](C(=O)O)[C@@H](C)C3)n2)c1 (relative stereo) [Compound 69, cis-1-[4-[2-[[2-cyano-4-(morpholinomethyl)phenyl]methoxy]-5-methyl-phenyl]thiazol-2-yl]-3-methyl-piperidine-4-carboxylic acid] | > 65 | > 65 | 72 |  |  |
| Cc1cc(C(=O)N2CCCCC2)ccc1COc1ccc(F)cc1-c1csc(N2CCC(C(=O)O)CC2C)n1 (stereo not drawn) [Compound 79] | 0.25 (≈ 0.453 µM) | > 55 | 50 |  |  |

Further lines, results first:

| solubility [1, 3] [µg/mL] | solubility [1, 4] [µg/mL] | EC50 [2] [nM] | Solubility (pH 4.5) ([1]; pH 4.5 buffer) [μg/mL] | Solubility (pH 7.4) ([1]; pH 7.4 buffer) [μg/mL] | Compound |
| --- | --- | --- | --- | --- | --- |
| 14 (≈ 25.2 µM) | 21 (≈ 37.8 µM) | 180 |  |  | Cc1cc(CN2CCOCC2)ccc1COc1ccc(Cl)cc1-c1csc(N2CCC(C(=O)O)CC2C)n1 (stereo not drawn) [Compound 84] |
| 4.3 (≈ 7.37 µM) | > 58 | 81 |  |  | Cc1ccc(OCc2ccc(C(=O)N3CCS(=O)(=O)CC3)cc2C)c(-c2csc(N3CCC(C(=O)O)CC3)n2)c1 [Compound 122] |
| 41 (≈ 78.7 µM) | > 63 | 5600 |  |  | COCCNCc1ccc(COc2ccc(C#N)cc2-c2csc(N3CCC(C(=O)O)CC3)n2)c(C)c1 [Compound 172] |
| 0.3 (≈ 0.49 µM) | > 61 | 4100 |  |  | Cc1cc(C(=O)N2CCCCC2)ccc1COc1ccc(C#N)cc1-c1csc(N2CCC(C(=O)O)C(C(F)(F)F)C2)n1 (stereo not drawn) [Compound 148] |
| > 64 | > 64 | 140 |  |  | Cc1ccc(OCc2ccc(CN3CCOCC3)cc2C)c(-c2csc(N3CC[C@@H](C(=O)O)[C@@H](C)C3)n2)c1 [Compound 173] |
| > 52 | > 52 | 3100 |  |  | Cc1ccc(OCc2ccc(CN3CCOCC3)cc2C)c(-c2csc(N[C@H]3CC[C@@H](C(=O)O)C3)n2)c1 [Compound 181] |
| > 57 | > 57 | 56 |  |  | Cc1cc(CN2CCOCC2)ccc1COc1c(-c2csc(N3CCC(C(=O)O)CC3)n2)cccc1C(F)(F)F [Compound 113] |
| > 55 | > 55 | 520 |  |  | Cc1cc(CN2CCOCC2)ccc1COc1ccccc1-c1csc(N2CCC(C(=O)O)CC2)n1 [Compound 166] |
| 0.15 (≈ 0.255 µM) | > 58 | 46 |  |  | Cc1cc(C(=O)N2CCCCC2)ccc1COc1c(-c2csc(N3CCC(C(=O)O)CC3)n2)cccc1C(F)(F)F [Compound 126] |
| 0.2 (≈ 0.314 µM) | > 63 | 43 |  |  | Cc1ccc(OCc2ccc(CN3CCS(=O)(=O)CC3)cc2C)c(-c2csc(N3CCC(C(=O)O)CC3C(F)(F)F)n2)c1 (stereo not drawn) [Compound 153] |
| 0.2 (≈ 0.355 µM) | > 56 | 780 |  |  | Cc1cc(C(=O)N2CCCCC2)ccc1COc1ccc(F)cc1-c1csc(N2CC3CCC(C2)C3C(=O)O)n1 (stereo not drawn) [Compound 98] |
